Like-named read-outs stand apart in the source and are kept apart here.
Tests used:
CRTH2 [1] = molecular target: T1, CRTH2 (Homo sapiens (Human), UniProt Q9Y5Y4); test: CRTH2 receptor binding inhibitory activity ([3H]-PGD2 displacement, membranes of CRTH2-expressing K562 cell); conditions: [3H]-PGD2 displacement, membrane of CRTH2-expressing K562 cell, read-out: Ki
Method in brief: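 Incubation ran 60 min at room temperature using 20 μg/well membrane from CRTH2-expressing K562 cells in pH 7.4 Tris/HCl (50 mM) with 10 mM MgCl2.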

DP receptor = DP receptor (Homo sapiens (Human), UniProt Q13258); test: DP inhibitory activity in human platelets (PGD2-induced cAMP increase in platelet rich plasma, HTRF); assay type: cell-based; conditions: IC50 of PGD2 (300 nM)-induced cAMP increase, read-out: PRP
DP receptor, sequence (Q13258 whole entry): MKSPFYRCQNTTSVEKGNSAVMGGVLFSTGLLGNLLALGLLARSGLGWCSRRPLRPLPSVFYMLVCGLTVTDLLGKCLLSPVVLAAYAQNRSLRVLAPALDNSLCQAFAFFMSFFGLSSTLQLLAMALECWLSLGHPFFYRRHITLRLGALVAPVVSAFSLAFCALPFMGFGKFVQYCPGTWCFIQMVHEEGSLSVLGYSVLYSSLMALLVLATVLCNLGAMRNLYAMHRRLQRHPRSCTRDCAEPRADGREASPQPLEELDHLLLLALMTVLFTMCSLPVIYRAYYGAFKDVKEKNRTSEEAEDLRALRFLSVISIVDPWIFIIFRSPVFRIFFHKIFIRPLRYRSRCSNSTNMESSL
Method: Thirty milliliter of blood was drown from healthy human into a syringe preloaded with 1/9 volume of 3.8% citrate sodium. The blood was centrifuged with 180 g for 10 min at room temperature and the upper plasma layer was collected as platelet rich plasma (PRP). The PRP was transferred to plate and treated with 3-isobutyl-1-methylxanthin (IBMX; […]) for 5 min. Then the compounds of the present invention were added to the plate and after 10 min, 300 nM of PGD2 was added. The reaction was stopped with 1 mmol/l hydrogenchlolide after 2 min of PGD2 addition, and platelet was lysed by adding 12% Triton X-100. The concentration of cAMP in the supernatant of the platelet lysate was quantified using homogenous time resolved fluorescence (HTRF). Inhibition ratio was defined by cAMP increase with and without compound, and […] for each compound was calculated from inhibitory curve.

Human DP1 receptor = Human DP1 receptor (Homo sapiens (Human), UniProt Q13258); test: Human DP1 inhibitory activity in DP1-expressing cell (PGD2-induced cAMP); assay type: cell-based
Human DP1 receptor, sequence (Q13258 whole entry): as above
Method: Compounds were categorized as AA (cAMP is less than 100 nM) and A (cAMP is more than 100 nM and less than 5000 nM) as shown in Table 99 and 100.

CRTH2 [2] = molecular target: T1, CRTH2; test: CRTH2 inhibitory activity in CRTH2-expressing cells (PGD2-induced intracellular calcium increase, K562); assay type: cell-based; conditions: 200 nM PGD2, read-out: IC50, inhibition of intracellular calcium concentration increase induced by PGD2
Method: CRTH2 inhibitory activities of compounds were determined as inhibition activity of intra-cellular calcium concentration increase induced by PGD2 in CRTH2-expressing cells.
CRTH2-expressing K562 cells were suspended at concentration of 2×10^6 cells/ml in buffer (10 mM HEPES, pH 7.4, 0.1% Bovine serum albumin). Cells were incubated with […] (4 μM) for 30 min at room temperature. Cells were washed, resuspended and mixed with various concentration of compounds of the present invention. After 2 min, cells were treated with 200 nM of PGD2. Then intracellular calcium concentration was measured using intracellular ion analyzer (FDSS3000). Inhibition ratio was defined by comparing intracellular calcium concentration increase with and without compound, and IC50 for each compound was calculated from inhibitory curve.

[3] = CRTH2 receptor binding, categorized AAAA/AAA
[4] = IC50 of PGD2 (60 nM)-induced cAMP increase, human DP1 receptor expressing Jurkut cell
[5] = category of cAMP IC50, human DP1 receptor expressing Jurkut cell

T1 sequence (Q9Y5Y4 whole entry): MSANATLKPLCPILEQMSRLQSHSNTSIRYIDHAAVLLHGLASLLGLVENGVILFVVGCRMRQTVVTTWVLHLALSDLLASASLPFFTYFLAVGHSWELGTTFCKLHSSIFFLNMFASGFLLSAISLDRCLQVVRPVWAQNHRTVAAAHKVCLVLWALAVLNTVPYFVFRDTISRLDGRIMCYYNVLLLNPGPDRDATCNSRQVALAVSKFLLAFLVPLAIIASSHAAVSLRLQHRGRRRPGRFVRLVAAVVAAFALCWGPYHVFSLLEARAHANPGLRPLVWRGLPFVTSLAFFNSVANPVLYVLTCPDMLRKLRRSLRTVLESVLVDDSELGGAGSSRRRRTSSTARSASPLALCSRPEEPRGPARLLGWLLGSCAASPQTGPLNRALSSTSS

| Compound | Ki (CRTH2 [1]; [3]) | Ki (CRTH2 [1]) | IC50 (DP receptor) | IC50 (Human DP1 receptor; [4]) | IC50 (Human DP1 receptor; [5]) | IC50 (CRTH2 [2]) |
| --- | --- | --- | --- | --- | --- | --- |
| CCOc1ccc(S(=O)(=O)N2C[C@@H](C)[C@@H](n3nc(CC(=O)O)c4ccccc43)C2)s1 [Compound I-177] | < 0.1 µM | 0.015 µM | 0.044 µM | 0.058 µM | < 0.1 µM | – |
| CCOc1ccc(S(=O)(=O)N2C[C@@H](C)[C@@H](n3nc(CC(=O)O)c4cc(C#N)ccc43)C2)cn1 [Compound I-159] | 0.1 to 5 µM | – | 0.068 µM | 0.14 µM | 0.1 to 5 µM | – |
| CCOc1ccc(S(=O)(=O)N2C[C@@H](C)[C@@H](n3nc(CC(=O)O)c4ccccc43)C2)c(N)c1 [Compound I-325] | < 0.1 µM | 0.028 µM | 0.21 µM | 0.024 µM | < 0.1 µM | – |
| CCOc1ccc(S(=O)(=O)N2C[C@@H](C)[C@@H](n3nc(CC(=O)O)c4ccc(N5CCCC5)cc43)C2)cn1 [Compound I-222] | 0.1 to 5 µM | 0.1 µM | 0.14 µM | 0.095 µM | < 0.1 µM | – |
| CC(C)Oc1ccc(S(=O)(=O)N2C[C@H](n3nc(CC(=O)O)c4ccc(F)cc43)C[C@@H]2Cn2cccn2)cc1 [Compound I-21] | < 0.1 µM | 0.01 µM | 0.18 µM | 0.059 µM | < 0.1 µM | – |
| CCOc1ccc(S(=O)(=O)N2C[C@@H](C)[C@@H](n3nc(C4(C(=O)O)CC4)c4ccccc43)C2)cc1 [Compound I-336] | 0.1 to 5 µM | 0.44 µM | 0.18 µM | 0.035 µM | < 0.1 µM | – |
| CCOc1ccc(S(=O)(=O)N2C[C@@H](C)[C@@H](n3nc(C(C)C(=O)O)c4ccccc43)C2)cc1 (stereo partly shown) [Compound I-284] | < 0.1 µM | 0.055 µM | 0.13 µM | 0.05 µM | < 0.1 µM | – |
| CCOc1ccc(S(=O)(=O)N2C[C@H](n3nc(CC(=O)O)c4ccccc43)CC23COC3)cc1 [Compound I-353] | 0.1 to 5 µM | 0.4 µM | 0.037 µM | 0.12 µM | 0.1 to 5 µM | – |
| CCOc1ccc(S(=O)(=O)N2C[C@H](n3nc(CC(=O)O)c4ccccc43)C[C@@H]2C#N)cc1 [Compound I-322] | 0.1 to 5 µM | 0.27 µM | 0.012 µM | 0.029 µM | < 0.1 µM | – |
| CCOc1ccc(S(=O)(=O)N2C[C@@H](n3nc(CC(=O)O)c4ccc(F)cc43)[C@@H](C)[C@@H]2C#N)cc1 [Compound I-155] | 0.1 to 5 µM | – | – | – | 0.1 to 5 µM | – |
| CC(C)Oc1ccc(S(=O)(=O)N2C[C@H](n3nc(CC(=O)O)c4ccc(F)cc43)C[C@H]2COc2nc3ccccc3s2)cc1 [Compound I-300] | < 0.1 µM | – | – | – | 0.1 to 5 µM | – |
| CCOc1ncc(S(=O)(=O)N2C[C@@H](C)[C@@H](n3nc(CC(=O)O)c4ccc(F)cc43)C2)s1 [Compound I-166] | < 0.1 µM | 0.012 µM | 0.055 µM | 0.032 µM | < 0.1 µM | – |
| CCOc1ccc(S(=O)(=O)N2C[C@@H](C)[C@@H](n3nc(CC(=O)O)c4c(C)cccc43)C2)cn1 [Compound I-206] | 0.1 to 5 µM | – | – | – | < 0.1 µM | – |
| CCOc1ccc(S(=O)(=O)N2C[C@@H](C)[C@@H](n3nc(CC(=O)O)c4ccccc43)C2)c(C#N)c1 [Compound I-200] | < 0.1 µM | – | – | – | < 0.1 µM | – |
| CCOc1ccc(S(=O)(=O)N2C[C@H](n3nc(CC(=O)O)c4ccc(F)cc43)[C@H](C)[C@H]2C#N)cc1 [Compound I-217] | < 0.1 µM | – | – | – | < 0.1 µM | – |
| CC(C)Oc1ccc(S(=O)(=O)N2C[C@H](n3nc(CC(=O)O)c4ccc(F)cc43)C[C@@H]2c2ccccn2)cc1 [Compound I-358] | 0.1 to 5 µM | – | – | – | 0.1 to 5 µM | – |
| C[C@H]1C[C@@H](n2nc(CC(=O)O)c3ccc(F)cc32)CCN1S(=O)(=O)c1ccc(F)cc1 [Compound I-77] | < 0.1 µM | 0.048 µM | – | – | 0.1 to 5 µM | – |
| COCCOCCOc1ccc(S(=O)(=O)N2C[C@@H](C)[C@@H](n3nc(CC(=O)O)c4ccccc43)C2)cc1 [Compound I-253] | 0.1 to 5 µM | – | – | – | 0.1 to 5 µM | – |
| CCOc1ccc(S(=O)(=O)N2C[C@@H](C)[C@@H](n3cc(CC(=O)O)c4ccc(-c5ncco5)cc43)C2)cc1 [Compound I-282] | < 0.1 µM | 0.01 µM | – | – | 0.1 to 5 µM | – |
| CCOc1ccc(S(=O)(=O)N2C[C@H](n3nc(CC(=O)O)c4ccccc43)C[C@@H]2CC2COC2)cc1 [Compound I-352] | 0.1 to 5 µM | – | – | – | 0.1 to 5 µM | – |
| CC(C)Oc1ccc(S(=O)(=O)N2C[C@H](n3nc(CC(=O)O)c4ccc(F)cc43)C[C@@H]2COc2ccccc2)cc1 [Compound I-365] | 0.1 to 5 µM | – | – | – | < 0.1 µM | – |
| CCS(=O)(=O)CCOc1ccc(S(=O)(=O)N2C[C@@H](C)[C@@H](n3nc(CC(=O)O)c4ccccc43)C2)cc1 [Compound I-305] | 0.1 to 5 µM | – | – | – | 0.1 to 5 µM | – |

Further lines, results first:

| Ki (CRTH2 [1]; [3]) | Ki (CRTH2 [1]) | IC50 (DP receptor) | IC50 (Human DP1 receptor; [4]) | IC50 (Human DP1 receptor; [5]) | IC50 (CRTH2 [2]) | Compound |
| --- | --- | --- | --- | --- | --- | --- |
| < 0.1 µM | – | 0.068 µM | 0.027 µM | < 0.1 µM | – | CCOc1ccc(S(=O)(=O)N2C[C@@H](C)[C@@H](n3nc(CC(=O)O)c4ccccc43)C2)c(F)c1 [Compound I-245] |
| < 0.1 µM | 0.0031 µM | 0.082 µM | 0.0047 µM | < 0.1 µM | – | CC(C)Oc1ccc(S(=O)(=O)N2C[C@@H](C)[C@@H](n3cc(CC(=O)O)c4ccc(F)cc43)C2)cc1 [Compound I-144] |
| 0.1 to 5 µM | – | 0.11 µM | 0.003 µM | < 0.1 µM | – | CC(C)Oc1ccc(S(=O)(=O)N2C[C@@H](C)[C@H](n3nc(CC(=O)O)c4cc(Br)c(F)cc43)C2)cc1 [Compound I-156] |
| < 0.1 µM | 0.062 µM | 0.26 µM | 0.056 µM | < 0.1 µM | – | CO/N=C/[C@H]1C[C@@H](n2nc(CC(=O)O)c3ccc(F)cc32)CN1S(=O)(=O)c1ccc(OC(C)C)cc1 [Compound I-19] |
| < 0.1 µM | 0.099 µM | 0.041 µM | 0.02 µM | < 0.1 µM | – | CCOc1ccc(S(=O)(=O)N2C[C@@H](C)[C@@H](n3nc(CC(=O)O)c4c(F)cccc43)C2)cc1 [Compound I-150] |
| < 0.1 µM | – | – | – | < 0.1 µM | – | CCOc1ccc(S(=O)(=O)N2C[C@@H](C)[C@@H](n3nc(CC(=O)O)c4ccc(C)cc43)C2)c(F)c1 [Compound I-237] |
| < 0.1 µM | – | – | – | < 0.1 µM | – | CCOc1ccc(S(=O)(=O)N2C[C@@H](C)[C@@H](n3nc(CC(=O)O)c4ccc(F)cc43)C2)cn1 [Compound I-108] |
| < 0.1 µM | – | – | – | < 0.1 µM | – | Cc1ccc2c(CC(=O)O)nn([C@H]3CN(S(=O)(=O)c4ccc(OC(F)(F)F)cc4)C[C@H]3C)c2c1 [Compound I-231] |
| < 0.1 µM | – | – | – | 0.1 to 5 µM | – | CC(C)Oc1ccc(S(=O)(=O)N2C[C@@H](CO)[C@@H](n3nc(CC(=O)O)c4ccc(F)cc43)C2)cc1 [Compound I-64] |
| < 0.1 µM | – | – | – | 0.1 to 5 µM | – | CC(C)Oc1ccc(S(=O)(=O)N2C[C@@H](CC(F)F)[C@@H](n3nc(CC(=O)O)c4ccc(F)cc43)C2)cc1 [Compound I-44] |
| < 0.1 µM | 0.011 µM | 0.092 µM | 0.0099 µM | < 0.1 µM | – | C[C@@H]1CN(S(=O)(=O)c2ccc(OC(F)(F)F)cc2)C[C@@H]1n1nc(CC(=O)O)c2ccc(Cl)cc21 [Compound I-142] |
| < 0.1 µM | 0.0074 µM | 0.19 µM | 0.031 µM | < 0.1 µM | 0.21 µM | CC(C)Oc1ccc(S(=O)(=O)N2C[C@@H](C)[C@@H](n3nc(CC(=O)O)c4ccc(C(F)(F)F)cc43)C2)cn1 [Compound I-131] |
| < 0.1 µM | – | – | – | < 0.1 µM | – | C=C[C@H]1C[C@@H](n2nc(CC(=O)O)c3ccc(F)cc32)CN1S(=O)(=O)c1ccc(OC(C)C)cc1 [Compound I-102] |
| < 0.1 µM | 0.023 µM | – | – | 0.1 to 5 µM | – | CC(C)Oc1ccc(S(=O)(=O)N2C[C@@H](C)[C@@H](n3nc(CC(=O)O)c4cccc(F)c43)C2)cc1 [Compound I-59] |
| < 0.1 µM | – | – | – | < 0.1 µM | – | COC[C@H]1C[C@@H](n2nc(CC(=O)O)c3ccc(F)cc32)CN1S(=O)(=O)c1ccc(OC(C)C)cc1 [Compound I-17] |
| 0.1 to 5 µM | – | 0.07 µM | 0.013 µM | < 0.1 µM | – | CCOc1ccc(S(=O)(=O)N2C[C@@H](C)[C@@H](n3nc(CC(=O)O)c4c(C)cccc43)C2)cc1 [Compound I-205] |

— patent publication US9725442B2, “Heterocyclic derivative having PGD2 receptor antagonist activity” (Shionogi & Co., Ltd., priority 2011, dated 2017)
